Data as given in publication PMC5394417, “Investigating the molecular mechanism of positive and negative allosteric modulators in the calcium-sensing receptor dimer” (Scientific Reports, 2017).

Target: T1, HA-S170A/D190A CaSR mutant (Rattus norvegicus, UniProt P48442, D190A/S170A)
T1 construct: mGluR5 signal peptide (N); expressed in transfected cells; host or cells: HEK293T
T1 sequence (P48442 20-1079 S170A/D190A): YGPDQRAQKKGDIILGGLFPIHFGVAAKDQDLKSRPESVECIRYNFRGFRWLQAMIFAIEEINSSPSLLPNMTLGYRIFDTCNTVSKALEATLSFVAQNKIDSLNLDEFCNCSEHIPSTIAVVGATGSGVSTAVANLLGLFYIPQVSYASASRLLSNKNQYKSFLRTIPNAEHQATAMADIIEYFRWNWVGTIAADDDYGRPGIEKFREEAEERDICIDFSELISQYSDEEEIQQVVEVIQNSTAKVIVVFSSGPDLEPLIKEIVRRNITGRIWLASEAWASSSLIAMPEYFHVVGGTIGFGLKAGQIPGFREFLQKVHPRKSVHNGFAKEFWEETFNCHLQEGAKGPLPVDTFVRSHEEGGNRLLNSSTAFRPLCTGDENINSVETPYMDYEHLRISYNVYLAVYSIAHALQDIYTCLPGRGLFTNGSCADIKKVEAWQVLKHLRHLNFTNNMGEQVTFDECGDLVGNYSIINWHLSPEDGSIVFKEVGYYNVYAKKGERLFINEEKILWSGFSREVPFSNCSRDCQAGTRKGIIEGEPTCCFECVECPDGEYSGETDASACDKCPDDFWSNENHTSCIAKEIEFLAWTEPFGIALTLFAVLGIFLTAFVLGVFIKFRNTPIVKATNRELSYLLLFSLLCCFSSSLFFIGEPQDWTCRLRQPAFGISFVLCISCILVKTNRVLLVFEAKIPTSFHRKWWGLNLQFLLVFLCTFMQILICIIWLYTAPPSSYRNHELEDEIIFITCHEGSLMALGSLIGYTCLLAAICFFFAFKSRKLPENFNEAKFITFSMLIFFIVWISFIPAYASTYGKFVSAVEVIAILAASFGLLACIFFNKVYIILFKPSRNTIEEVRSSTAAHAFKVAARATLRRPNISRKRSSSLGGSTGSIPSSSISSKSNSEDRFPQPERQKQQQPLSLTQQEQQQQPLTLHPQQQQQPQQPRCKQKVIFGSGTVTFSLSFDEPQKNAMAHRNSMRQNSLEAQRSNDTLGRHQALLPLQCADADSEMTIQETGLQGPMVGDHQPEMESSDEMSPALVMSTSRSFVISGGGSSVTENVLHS
Assay: IP-One assay, HEK293T transiently transfected
Format: cell-based

EC50 (Ca^2+ alone): 31.8 mM | Hill coefficient ± S.E.M. (Ca^2+ alone): 4.05 ± 0.43 | pEC50 ± S.E.M. (Ca^2+ alone): 1.50 ± 0.04 | Max ± S.E.M. (normalized to maximum response of WT CaSR): 49 ± 2.5%
SMILES: [Ca+2] [Ca^2+]
